Legend:
Experiment in all cases: kinobeads assay with mass spectrometry detection of kinases (kinase selectivity profile)
Format in all cases: binding
[1] = molecular target: T1, kinases (kinome) (Homo sapiens, UniProt P51955); settings: NEK2 (Other), IPI00021331
T1 construct: determined in kinobeads assays with mass spectrometry detection of kinases as described previously; endogenous in cells; host or cells: cell lysate
T1 sequence (P51955 1-445): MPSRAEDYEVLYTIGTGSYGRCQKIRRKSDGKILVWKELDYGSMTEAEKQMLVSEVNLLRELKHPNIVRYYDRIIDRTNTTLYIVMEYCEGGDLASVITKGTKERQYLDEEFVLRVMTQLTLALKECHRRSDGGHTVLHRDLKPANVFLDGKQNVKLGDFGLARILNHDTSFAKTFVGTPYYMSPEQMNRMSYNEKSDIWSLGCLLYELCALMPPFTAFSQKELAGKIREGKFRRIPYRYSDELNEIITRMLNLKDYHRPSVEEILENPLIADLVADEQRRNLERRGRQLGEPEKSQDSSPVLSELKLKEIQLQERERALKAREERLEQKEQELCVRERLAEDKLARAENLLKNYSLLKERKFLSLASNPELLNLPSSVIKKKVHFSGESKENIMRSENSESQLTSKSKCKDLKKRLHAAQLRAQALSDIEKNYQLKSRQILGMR
Text: (§1) The protein kinase complement of the human genome (the kinome) was described previously (Manning et al., 2002. Science 298(5600):1912-1934). Sequence accession numbers are defined by the International Protein Index (IPI) (Kersey et al., 2004. Proteomics 4(7):1985-1988).

[2] = molecular target: T2, kinases (kinome) (Homo sapiens, UniProt Q8NI60); settings: ADCK3 (Atypical), IPI00176469
T2 construct: determined in kinobeads assays with mass spectrometry detection of kinases as described previously; endogenous in cells; host or cells: cell lysate
T2 sequence (Q8NI60 163-647): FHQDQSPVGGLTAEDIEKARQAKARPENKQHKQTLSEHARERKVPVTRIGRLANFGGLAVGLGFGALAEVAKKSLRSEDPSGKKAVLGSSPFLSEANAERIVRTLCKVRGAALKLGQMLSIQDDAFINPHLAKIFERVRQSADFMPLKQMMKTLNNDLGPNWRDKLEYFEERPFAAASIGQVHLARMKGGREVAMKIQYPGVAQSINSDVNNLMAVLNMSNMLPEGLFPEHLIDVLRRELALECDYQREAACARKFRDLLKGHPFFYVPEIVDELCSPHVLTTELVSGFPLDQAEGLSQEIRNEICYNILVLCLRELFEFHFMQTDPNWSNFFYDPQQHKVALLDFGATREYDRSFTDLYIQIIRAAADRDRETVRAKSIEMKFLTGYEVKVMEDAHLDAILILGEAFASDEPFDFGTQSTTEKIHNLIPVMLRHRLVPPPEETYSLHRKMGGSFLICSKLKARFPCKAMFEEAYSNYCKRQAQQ
Text: as §1

[3] = molecular target: T3, kinases (kinome) (Homo sapiens, UniProt Q9H0K1); settings: QIK (CAMK), IPI00465291
T3 construct: determined in kinobeads assays with mass spectrometry detection of kinases as described previously; endogenous in cells; host or cells: cell lysate
T3 sequence (Q9H0K1 whole entry): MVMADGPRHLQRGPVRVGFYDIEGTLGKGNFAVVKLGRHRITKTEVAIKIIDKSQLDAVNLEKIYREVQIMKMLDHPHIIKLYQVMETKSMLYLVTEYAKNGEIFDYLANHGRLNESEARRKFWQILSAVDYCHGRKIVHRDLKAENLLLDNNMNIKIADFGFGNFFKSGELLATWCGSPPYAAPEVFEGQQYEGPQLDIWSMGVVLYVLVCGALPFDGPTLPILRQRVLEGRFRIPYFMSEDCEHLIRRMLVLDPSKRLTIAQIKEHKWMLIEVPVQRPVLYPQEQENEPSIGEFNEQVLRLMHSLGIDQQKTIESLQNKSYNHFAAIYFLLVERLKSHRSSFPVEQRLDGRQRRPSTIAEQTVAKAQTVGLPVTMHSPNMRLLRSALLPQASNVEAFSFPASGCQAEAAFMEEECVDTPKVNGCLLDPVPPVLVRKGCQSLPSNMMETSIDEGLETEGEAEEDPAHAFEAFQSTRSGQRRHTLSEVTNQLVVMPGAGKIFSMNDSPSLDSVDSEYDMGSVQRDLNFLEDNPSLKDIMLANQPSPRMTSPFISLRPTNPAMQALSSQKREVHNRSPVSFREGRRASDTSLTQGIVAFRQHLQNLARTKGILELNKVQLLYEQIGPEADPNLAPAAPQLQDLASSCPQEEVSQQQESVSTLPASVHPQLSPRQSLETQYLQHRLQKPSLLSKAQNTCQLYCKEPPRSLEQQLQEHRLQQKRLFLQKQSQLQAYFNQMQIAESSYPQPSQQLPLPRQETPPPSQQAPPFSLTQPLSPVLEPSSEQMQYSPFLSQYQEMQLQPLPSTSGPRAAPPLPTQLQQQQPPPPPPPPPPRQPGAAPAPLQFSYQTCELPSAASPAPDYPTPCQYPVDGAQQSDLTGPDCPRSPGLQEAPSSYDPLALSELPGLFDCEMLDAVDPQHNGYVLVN
Text: as §1

[4] = molecular target: T4, kinases (kinome) (Homo sapiens, UniProt Q9Y2K2); settings: QSK (CAMK), IPI00657720
T4 construct: determined in kinobeads assays with mass spectrometry detection of kinases as described previously; endogenous in cells; host or cells: cell lysate
T4 sequence (Q9Y2K2 whole entry): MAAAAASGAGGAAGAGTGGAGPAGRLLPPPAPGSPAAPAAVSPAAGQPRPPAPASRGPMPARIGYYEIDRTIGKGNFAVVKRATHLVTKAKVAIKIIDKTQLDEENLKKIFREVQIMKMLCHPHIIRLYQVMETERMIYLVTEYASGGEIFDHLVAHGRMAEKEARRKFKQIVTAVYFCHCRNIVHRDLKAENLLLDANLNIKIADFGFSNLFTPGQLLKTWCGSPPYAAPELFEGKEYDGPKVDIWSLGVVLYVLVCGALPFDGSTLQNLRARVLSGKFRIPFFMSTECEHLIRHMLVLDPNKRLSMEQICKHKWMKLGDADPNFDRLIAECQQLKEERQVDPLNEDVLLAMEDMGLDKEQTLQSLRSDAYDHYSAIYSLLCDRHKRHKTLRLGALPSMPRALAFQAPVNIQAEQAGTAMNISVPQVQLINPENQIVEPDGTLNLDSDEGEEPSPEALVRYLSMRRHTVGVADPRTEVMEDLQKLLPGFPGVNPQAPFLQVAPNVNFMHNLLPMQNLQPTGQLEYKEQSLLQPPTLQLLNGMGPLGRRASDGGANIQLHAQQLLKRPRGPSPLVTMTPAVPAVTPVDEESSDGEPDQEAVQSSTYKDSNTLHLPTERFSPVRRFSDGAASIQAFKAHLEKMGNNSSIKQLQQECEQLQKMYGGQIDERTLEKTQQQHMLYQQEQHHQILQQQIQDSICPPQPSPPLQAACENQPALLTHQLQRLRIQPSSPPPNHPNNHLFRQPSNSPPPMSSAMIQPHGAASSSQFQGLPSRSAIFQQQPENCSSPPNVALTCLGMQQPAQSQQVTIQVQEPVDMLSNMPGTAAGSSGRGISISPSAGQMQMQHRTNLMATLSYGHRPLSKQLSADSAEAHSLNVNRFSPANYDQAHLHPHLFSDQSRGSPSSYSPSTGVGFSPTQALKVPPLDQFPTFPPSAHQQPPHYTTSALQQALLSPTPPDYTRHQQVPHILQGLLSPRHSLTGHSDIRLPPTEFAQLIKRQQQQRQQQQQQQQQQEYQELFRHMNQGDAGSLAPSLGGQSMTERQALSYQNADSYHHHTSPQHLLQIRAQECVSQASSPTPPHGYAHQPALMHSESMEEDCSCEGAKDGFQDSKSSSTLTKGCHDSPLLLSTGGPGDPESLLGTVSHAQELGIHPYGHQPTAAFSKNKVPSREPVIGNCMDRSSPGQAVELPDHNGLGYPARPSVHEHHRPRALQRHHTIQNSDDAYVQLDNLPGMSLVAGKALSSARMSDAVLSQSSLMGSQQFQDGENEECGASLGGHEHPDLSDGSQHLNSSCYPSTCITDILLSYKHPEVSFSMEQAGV
Text: as §1

[5] = molecular target: T5, kinases (kinome) (Homo sapiens, UniProt P19784); settings: CK2a2 (Other), IPI00020602
T5 construct: determined in kinobeads assays with mass spectrometry detection of kinases as described previously; endogenous in cells; host or cells: cell lysate
T5 sequence (P19784 whole entry): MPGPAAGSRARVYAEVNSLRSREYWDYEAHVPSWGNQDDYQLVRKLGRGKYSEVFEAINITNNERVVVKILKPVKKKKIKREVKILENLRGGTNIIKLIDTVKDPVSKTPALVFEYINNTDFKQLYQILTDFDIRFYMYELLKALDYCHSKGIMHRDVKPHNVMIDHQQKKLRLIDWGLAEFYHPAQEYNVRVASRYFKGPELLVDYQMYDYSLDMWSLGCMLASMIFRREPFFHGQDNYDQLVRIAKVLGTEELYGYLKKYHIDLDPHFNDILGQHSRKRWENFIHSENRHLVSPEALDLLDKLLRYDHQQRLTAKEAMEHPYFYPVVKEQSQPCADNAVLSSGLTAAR
Text: as §1

[6] = molecular target: T6, kinases (kinome) (Homo sapiens, UniProt P78527); settings: DNAPK (Atypical), IPI00296337
T6 construct: determined in kinobeads assays with mass spectrometry detection of kinases as described previously; endogenous in cells; host or cells: cell lysate
Text: as §1

[7] = molecular target: T7, kinases (kinome) (Homo sapiens, UniProt P50750); settings: CDK9 (CMGC), IPI00552413
T7 construct: determined in kinobeads assays with mass spectrometry detection of kinases as described previously; endogenous in cells; host or cells: cell lysate
T7 sequence (P50750 whole entry): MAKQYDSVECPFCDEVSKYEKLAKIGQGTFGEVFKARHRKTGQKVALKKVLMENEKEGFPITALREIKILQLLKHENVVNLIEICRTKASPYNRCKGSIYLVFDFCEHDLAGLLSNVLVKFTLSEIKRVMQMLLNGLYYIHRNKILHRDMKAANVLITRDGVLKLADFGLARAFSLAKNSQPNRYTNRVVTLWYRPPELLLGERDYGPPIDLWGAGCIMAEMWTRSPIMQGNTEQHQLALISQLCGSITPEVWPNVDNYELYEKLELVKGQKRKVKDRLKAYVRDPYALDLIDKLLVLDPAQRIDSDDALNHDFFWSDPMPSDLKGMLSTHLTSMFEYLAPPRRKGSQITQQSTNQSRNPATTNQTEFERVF
Text: as §1

[8] = molecular target: T8, kinases (kinome) (Homo sapiens, UniProt Q9UBE8); settings: NLK (CMGC), IPI00008237
T8 construct: determined in kinobeads assays with mass spectrometry detection of kinases as described previously; endogenous in cells; host or cells: cell lysate
T8 sequence (Q9UBE8 1-527): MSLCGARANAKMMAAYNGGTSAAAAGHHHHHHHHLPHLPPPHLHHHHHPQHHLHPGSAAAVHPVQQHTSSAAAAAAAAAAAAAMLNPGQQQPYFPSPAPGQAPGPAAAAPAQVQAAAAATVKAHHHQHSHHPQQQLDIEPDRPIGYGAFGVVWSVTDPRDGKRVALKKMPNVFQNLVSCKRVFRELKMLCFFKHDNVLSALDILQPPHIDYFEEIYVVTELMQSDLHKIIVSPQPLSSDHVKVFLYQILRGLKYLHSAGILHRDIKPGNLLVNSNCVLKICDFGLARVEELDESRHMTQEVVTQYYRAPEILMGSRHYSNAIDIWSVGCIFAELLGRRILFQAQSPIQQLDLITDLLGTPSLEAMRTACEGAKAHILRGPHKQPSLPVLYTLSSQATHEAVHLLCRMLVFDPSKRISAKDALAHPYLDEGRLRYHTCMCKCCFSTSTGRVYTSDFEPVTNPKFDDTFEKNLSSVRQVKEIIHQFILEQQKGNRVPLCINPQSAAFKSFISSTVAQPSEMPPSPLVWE
Text: as §1

[9] = molecular target: T9, kinases (kinome) (Homo sapiens, UniProt P10398); settings: ARAF (TKL), IPI00020578
T9 construct: determined in kinobeads assays with mass spectrometry detection of kinases as described previously; endogenous in cells; host or cells: cell lysate
T9 sequence (P10398 1-606): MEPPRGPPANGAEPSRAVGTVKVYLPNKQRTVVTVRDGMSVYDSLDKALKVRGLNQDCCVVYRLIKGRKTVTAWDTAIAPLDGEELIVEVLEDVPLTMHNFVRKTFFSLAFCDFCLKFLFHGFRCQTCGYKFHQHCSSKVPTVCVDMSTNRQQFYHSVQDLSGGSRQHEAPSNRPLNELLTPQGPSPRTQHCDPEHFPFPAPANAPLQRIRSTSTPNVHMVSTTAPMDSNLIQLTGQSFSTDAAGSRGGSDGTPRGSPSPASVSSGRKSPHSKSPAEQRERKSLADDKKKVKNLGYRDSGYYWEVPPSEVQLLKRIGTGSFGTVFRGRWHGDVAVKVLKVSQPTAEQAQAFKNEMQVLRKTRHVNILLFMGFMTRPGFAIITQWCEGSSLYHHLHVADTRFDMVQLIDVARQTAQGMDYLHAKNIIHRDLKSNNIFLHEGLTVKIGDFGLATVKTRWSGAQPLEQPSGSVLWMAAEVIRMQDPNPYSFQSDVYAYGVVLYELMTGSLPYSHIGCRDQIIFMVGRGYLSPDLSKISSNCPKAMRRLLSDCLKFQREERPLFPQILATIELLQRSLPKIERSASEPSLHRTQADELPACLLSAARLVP
Text: as §1

[10] = molecular target: T10, kinases (kinome) (Homo sapiens, UniProt P30291); settings: Wee1 (Other), IPI00025830
T10 construct: determined in kinobeads assays with mass spectrometry detection of kinases as described previously; endogenous in cells; host or cells: cell lysate
T10 sequence (P30291 whole entry): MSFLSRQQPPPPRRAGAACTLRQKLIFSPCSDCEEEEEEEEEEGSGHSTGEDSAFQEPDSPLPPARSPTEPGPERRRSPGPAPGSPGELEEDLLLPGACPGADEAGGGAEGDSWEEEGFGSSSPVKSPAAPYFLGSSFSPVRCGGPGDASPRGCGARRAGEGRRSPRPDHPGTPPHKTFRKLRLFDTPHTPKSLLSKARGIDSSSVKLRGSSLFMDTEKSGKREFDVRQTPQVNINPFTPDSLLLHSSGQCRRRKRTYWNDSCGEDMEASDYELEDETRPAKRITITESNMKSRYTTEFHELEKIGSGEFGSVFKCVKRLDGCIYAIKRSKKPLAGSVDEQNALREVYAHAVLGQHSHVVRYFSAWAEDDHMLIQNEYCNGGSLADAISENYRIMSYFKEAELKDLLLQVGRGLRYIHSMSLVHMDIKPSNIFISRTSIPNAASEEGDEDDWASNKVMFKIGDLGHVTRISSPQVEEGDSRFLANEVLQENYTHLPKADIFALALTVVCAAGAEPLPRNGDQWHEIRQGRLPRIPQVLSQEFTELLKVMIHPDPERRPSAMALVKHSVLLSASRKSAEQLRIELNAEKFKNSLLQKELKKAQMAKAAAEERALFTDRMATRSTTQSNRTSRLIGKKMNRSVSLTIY
Text: as §1

[11] = molecular target: T11, kinases (kinome) (Homo sapiens, UniProt O14965); settings: AurA (Other), IPI00298940
T11 construct: determined in kinobeads assays with mass spectrometry detection of kinases as described previously; endogenous in cells; host or cells: cell lysate
T11 sequence (O14965 1-403): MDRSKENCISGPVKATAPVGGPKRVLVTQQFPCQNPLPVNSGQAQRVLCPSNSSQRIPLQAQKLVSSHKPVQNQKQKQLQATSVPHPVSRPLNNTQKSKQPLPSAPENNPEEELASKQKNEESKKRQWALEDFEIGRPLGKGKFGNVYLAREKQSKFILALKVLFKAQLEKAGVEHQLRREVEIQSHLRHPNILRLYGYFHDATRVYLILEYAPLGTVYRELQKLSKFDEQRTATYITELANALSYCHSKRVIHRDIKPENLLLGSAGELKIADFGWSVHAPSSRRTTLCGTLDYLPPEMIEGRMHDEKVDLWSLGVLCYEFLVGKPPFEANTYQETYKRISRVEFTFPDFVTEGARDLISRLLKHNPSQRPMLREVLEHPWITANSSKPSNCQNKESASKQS
Text: as §1

Measured: IC50

C[C@H]1COCCN1c1nc(-c2ccc(NC(=O)NC3CC3)cc2)cc(-c2ccccc2S(C)(=O)=O)n1 [Example 4, (S)-1-cyclopropyl-3-(4-(2-(3-methylmorpholino)-6-(2-(methylsulfonyl)phenyl)pyrimidin-4-yl)phenyl)urea]
> 10 µM: all assays above

C[C@H]1COCCN1c1cc(-c2ccccc2S(C)(=O)=O)nc(-c2ccc(NC(=O)NC3CC3)cc2)n1 [Example 6, (S)-1-cyclopropyl-3-(4-(4-(3-methylmorpholino)-6-(2-(methylsulfonyl)phenyl)pyrimidin-2-yl)phenyl)urea]
> 10 µM: all assays above

CCNC(=O)Nc1ccc(-c2cc(-c3ccccc3C#N)nc(N3CCOC[C@@H]3C)n2)cc1 [Example 8, (S)-1-(4-(6-(2-cyanophenyl)-2-(3-methylmorpholino)pyrimidin-4-yl)phenyl)-3-ethylurea]
> 10 µM: all assays above

C[C@H]1COCCN1c1nc(-c2ccc(NC(=O)NC3CC3)cc2)cc(-c2cc(F)ccc2S(C)(=O)=O)n1 [Example 40, (S)-1-cyclopropyl-3-(4-(6-(5-fluoro-2-(methylsulfonyl)phenyl)-2-(3-methylmorpholino)pyrimidin-4-yl)phenyl)urea]
> 10 µM: all assays above

C[C@H]1COCCN1c1cc(-c2ccccn2)nc(-c2ccc(NC(=O)NCCO)cc2)n1 [Example 43, (S)-1-(2-hydroxyethyl)-3-(4-(4-(3-methylmorpholino)-6-(pyridin-2-yl)pyrimidin-2-yl)phenyl)urea]
> 10 µM: all assays above

C[C@H]1COCCN1c1nc(-c2ccc(NC(=O)NC3CC3)cc2)cc(-c2cccnc2S(C)(=O)=O)n1 [Example 46, (S)-1-cyclopropyl-3-(4-(2-(3-methylmorpholino)-6-(2-(methylsulfonyl)pyridin-3-yl)pyrimidin-4-yl)phenyl)urea]
> 10 µM: all assays above

C[C@H]1COCCN1c1nc(-c2ccc(NC(=O)N[C@H]3CCC[C@@H]3O)cc2)cc(-c2cc(F)ccc2S(C)(=O)=O)n1 [Example 76, 1-(4-(6-(5-fluoro-2-(methylsulfonyl)phenyl)-2-((S)-3-methylmorpholino)pyrimidin-4-yl)phenyl)-3-((1S,2S)-2-hydroxycyclopentyl)urea]
> 10 µM: all assays above
